# Experimental data published in US4012394A, “Indole derivatives” (Labaz, priority 1973, dated 1977).
# Like-named read-outs stand apart in the source and are kept apart here.
# What was measured:
# [1] = system: vena cave inferior of the rat (film of fibrin); experiment: fibrinolytic activity, procedure of TODD adapted to the vena cave inferior of the rat; assay type: in vivo; settings: for change in vivo at 10 mg/kg: ip, 40 min, read-out: Fibrinolytic index in % (average increase in fibrinolytic effect compared with control animals); for fibrinolytic index: 100 mg/kg
# Description: Forschumg, 20, 358, 1970. […]
# Male rats weighing 150 to 200 g. and having fasted for 24 hours were divided into two groups. The animals of one group were given the above-indicated dose of the compound to be tested. […] After 40 minutes, the treated animals were sacrificed simultaneously with the control animals, the veins immediately removed, rinsed with physiological salt solution, frozen and cut into pieces having a thickness of 20 microns. On each piece, a film of fibrin was formed by the application of a bovine fibrinogenous solution, rich in plasminogen, and of a thrombin solution.
# All the preparations were then fixed with a 10% solution of neutral formol, stained with haematoxylin of Harris and covered with gelatine.
# Value = 0: The film of fibrin was intact.
# Value = 1: The lysis zones in the endothelium were disseminated.
# Value = 2:The lysis zones were larger and more or less joined.
# Value = 3:The fibrin in contact with the endothelium was almost completely decomposed.
# The fibrinolytic index represents the average of the values of the reactions obtained for each incubation.
# [2] = acute toxicity in the rat; settings: rat, in vivo
# Description: (§1) A certain number of toxicity tests were also carried out on rats and mice and in particular acute toxicity tests.
# carragheenin oedema = experiment: JANSSEN test, carragheenin-induced paw oedema in the rat; assay type: in vivo; settings: for ED50: 3 h, read-out: AD50 (amount of compound required to ensure a 50% reduction of the oedema); for anti-inflammatory activity (in words): in vivo
# Description: The anti-inflammatory activity of the compounds of the invention was determined on the rat by means of the JANSSEN test involving the use of carragheenin as inflammatory agent.
# Into the plantar aponeurosis of the back paws of a group of female rats 0.05 ml. of a 1 % suspension of carragheenin was injected one hour after the compound to be tested had been administered by oral route. The size of the paw was measured by plethysmograph both before and three hours after administration of the carragheenin. The anti-inflammatory activity was calculated as the percentage of reduction of the resulting oedema as compared with control animals which had received the same dose of carragheenin without any anti-inflammatory agent. The AD50 was taken as the amount of compound required to ensure a 50% reduction of the oedema.
# gastric ulcers = experiment: in vivo; settings: for irritant (ulcer-producing) action relative to Compound A: fasting rats, gastric ulcers, times as irritant as Compound A
# Description: (§2) As another means of evaluating the utility of the compounds of the invention as anti-inflammatory agents in comparison with the three substances indicated above, trials were carried out on fasting rats in order to determine the degree to which the compounds studied produced gastric ulcers in the animals so treated.
# in vivo = settings: rat, in vivo
# Description: as §2
# rats = experiment: acute toxicity in the rat; settings: compared with indomethacin and/or phenylbutazone
# Description: as §1
# [3] = acute toxicity in the mouse; settings: in vivo, seven days of observation
# [4] = 10 mg/kg, intraperitoneal, rat, 40 minutes
smiles,measurement,setting,value
CC(C)c1c(C(=O)c2ccccn2)c2ccccc2n1CCN(C)C [(1-β-dimethylaminoethyl-2-isopropyl-3-indolyl) (2-pyridyl) ketone],change in vivo at 10 mg/kg,[1]; Rattus norvegicus,21%
CC(C)c1c(C(=O)c2cccnc2)c2ccccc2n1CCN(C)C [(1-β-dimethylaminoethyl-2-isopropyl-3-indolyl) (3-pyridyl) ketone],change in vivo at 10 mg/kg,[1]; Rattus norvegicus,24%
CC(C)c1c(C(=O)c2ccncc2)c2ccccc2n1CCN(C)C [(1-β-dimethylaminoethyl-2-isopropyl-3-indolyl) (4-pyridyl) ketone],change in vivo at 10 mg/kg,[1]; Rattus norvegicus,44%
CCCc1c(C(=O)c2ccccn2)c2ccccc2n1CCN(C)C [(1-β-dimethylaminoethyl-2-n-propyl-3-indolyl) (2-pyridyl) ketone],change in vivo at 10 mg/kg,[1]; Rattus norvegicus,50%
CN(C)CCn1c(-c2ccccc2)c(C(=O)c2ccccn2)c2ccccc21 [(1-β-dimethylaminoethyl-2-phenyl-3-indolyl) (2-pyridyl) ketone],change in vivo at 10 mg/kg,[1]; Rattus norvegicus,50%
CN(C)CCn1c(-c2ccccc2)c(C(=O)c2cccnc2)c2ccccc21 [(1-β-dimethylaminoethyl-2-phenyl-3-indolyl) (3-pyridyl) ketone],change in vivo at 10 mg/kg,[1]; Rattus norvegicus,96%
CC(C)c1c(C(=O)c2cccnc2)c2ccccc2n1CCCN(C)C [(1-γ-dimethylaminopropyl-2-isopropyl-3-indolyl) (3-pyridyl) ketone],LD50,[2]; po,> 2000 mg/kg
CC(C)c1c(C(=O)c2ccncc2)c2ccccc2n1CCCN(C)C [(1-γ-dimethylaminopropyl-2-isopropyl-3-indolyl) (4-pyridyl) ketone],change in vivo at 10 mg/kg,[1]; Rattus norvegicus,30%
CCCc1c(C(=O)c2ccccn2)c2ccccc2n1CCCN(C)C [(1-γ-dimethylaminopropyl-2-n-propyl-3-indolyl) (2-pyridyl) ketone],change in vivo at 10 mg/kg,[1]; Rattus norvegicus,66%
CN(C)CCCn1c(-c2ccccc2)c(C(=O)c2ccccn2)c2ccccc21 [(1-γ-dimethylaminopropyl-2-phenyl-3-indolyl) (2-pyridyl) ketone],change in vivo at 10 mg/kg,[1]; Rattus norvegicus,46%
CN(C)CCCn1c(-c2ccccc2)c(C(=O)c2cccnc2)c2ccccc21 [(1-γ-dimethylaminopropyl-2-phenyl-3-indolyl) (3-pyridyl) ketone],change in vivo at 10 mg/kg,[1]; Rattus norvegicus,46%
CC(C)c1c(C(=O)c2ccccn2)c2ccccc2n1CCCN1CCCCC1 [(1-γ-piperidinopropyl-2-isopropyl-3-indolyl) (2-pyridyl) ketone],change in vivo at 10 mg/kg,[1]; Rattus norvegicus,123%
CC(C)c1c(C(=O)c2cccnc2)c2ccccc2n1CCCN1CCCCC1 [(1-γ-piperidinopropyl-2-isopropyl-3-indolyl) (3-pyridyl) ketone],change in vivo at 10 mg/kg,[1]; Rattus norvegicus,18%
"CC(C)c1[nH]c2ccccc2c1C(=O)c1cccnc1 [(2-isopropyl-3-indolyl) (3-pyridyl) ketone, reference compound]",change in vivo at 10 mg/kg,[1]; [4],5%
"CC(C)c1[nH]c2ccccc2c1C(=O)c1ccncc1 [(2-isopropyl-3-indolyl)(4-pyridyl) ketone, reference compound]",change in vivo at 10 mg/kg,[1]; [4],10%
"CCCc1[nH]c2ccccc2c1C(=O)c1ccccn1 [(2-n-propyl-3-indolyl)(2-pyridyl) ketone, reference compound]",fibrinolytic index,[1]; rat,2%
"O=C(c1cccnc1)c1c(-c2ccccc2)[nH]c2ccccc12 [(2-phenyl-3-indolyl)(3-pyridyl) ketone, reference compound]",fibrinolytic index,[1]; rat,20%
CC(=O)Oc1ccccc1C(=O)O [Acetylsalicylic acid],ED50,"carragheenin oedema; Rattus norvegicus, po",110 mg/kg
same,anti-inflammatory activity (in words),carragheenin oedema; rat,less active than Compound A
same,irritant (ulcer-producing) action relative to Compound A,gastric ulcers,one-and-a-half
same,selectivity ratio,in vivo,2
"CC(C)c1c(C(=O)c2cccnc2)c2ccccc2n1C [Compound A, (1-methyl-2-isopropyl-3-indolyl) (3-pyridyl) ketone]",ED50,"carragheenin oedema; Rattus norvegicus, po",15 mg/kg
same,distance of irritant dose from anti-inflammatory dose (in words),"gastric ulcers; compared with indomethacin, phenylbutazone or acetylsalicylic acid",irritant dose is much farther removed from the anti-inflammatory dose
same,selectivity ratio,in vivo,20
same,toxicity (in words),rats,less toxic than both indomethacin and phenylbutazone
same,LD50,[2]; ip,425 mg/kg
same,LD50,[2]; po,2400 mg/kg
same,LD50 at 168 h,"[3]; ip, intraperitoneal route",3250 mg/kg
same,LD50 at 168 h,"[3]; po, intragastric route",900 mg/kg
COc1ccc2c(c1)c(CC(=O)O)c(C)n2C(=O)c1ccc(Cl)cc1 [Indomethacin],ED50,"carragheenin oedema; Rattus norvegicus, po",4 mg/kg
same,anti-inflammatory activity (in words),carragheenin oedema; rat,more powerful anti-inflammatory agent than Compound A
same,irritant (ulcer-producing) action relative to Compound A,gastric ulcers,sixty
same,selectivity ratio,in vivo,1.3
same,LD50,[2]; po,22.5 mg/kg
CCCCC1C(=O)N(c2ccccc2)N(c2ccccc2)C1=O [Phenylbutazone],ED50,"carragheenin oedema; oral, rat, one hour before carragheenin, oedema measured three hours after",22 mg/kg
same,anti-inflammatory activity (in words),carragheenin oedema; rat,less active than Compound A
CN(C)CCn1c(-c2ccc(F)cc2)c(C(=O)c2cccnc2)c2ccccc21 [[1-β -dimethylaminoethyl-2-(4-fluoro-phenyl)-3-indolyl] (3-pyridyl) ketone],change in vivo at 10 mg/kg,[1]; Rattus norvegicus,90%
CN(C)CCn1c(-c2ccc(Cl)cc2)c(C(=O)c2cccnc2)c2ccccc21 [[1-β-dimethylaminoethyl-2-(4-chloro-phenyl)-3-indolyl] (3-pyridyl) ketone],change in vivo at 10 mg/kg,[1]; Rattus norvegicus,40%
CN(C)CCn1c(-c2ccc(Cl)cc2)c(C(=O)c2ccncc2)c2ccccc21 [[1-β-dimethylaminoethyl-2-(4-chloro-phenyl)-3-indolyl] (4-pyridyl) ketone],change in vivo at 10 mg/kg,[1]; Rattus norvegicus,42%
CN(C)CCn1c(-c2ccc(F)cc2)c(C(=O)c2ccncc2)c2ccccc21 [[1-β-dimethylaminoethyl-2-(4-fluoro-phenyl)-3-indolyl] (4-pyridyl) ketone],change in vivo at 10 mg/kg,[1]; Rattus norvegicus,50%
COc1ccc(-c2c(C(=O)c3ccccn3)c3ccccc3n2CCN(C)C)cc1 [[1-β-dimethylaminoethyl-2-(4-methoxy-phenyl)-3-indolyl] (2-pyridyl) ketone],change in vivo at 10 mg/kg,[1]; Rattus norvegicus,45%
COc1ccc(-c2c(C(=O)c3cccnc3)c3ccccc3n2CCN(C)C)cc1 [[1-β-dimethylaminoethyl-2-(4-methoxy-phenyl)-3-indolyl] (3-pyridyl) ketone],change in vivo at 10 mg/kg,[1]; Rattus norvegicus,133%
COc1ccc(-c2c(C(=O)c3ccncc3)c3ccccc3n2CCN(C)C)cc1 [[1-β-dimethylaminoethyl-2-(4-methoxy-phenyl)-3-indolyl] (4-pyridyl) ketone],change in vivo at 10 mg/kg,[1]; Rattus norvegicus,42%
O=C(c1ccncc1)c1c(-c2ccc(Cl)cc2)n(CCN2CCCCC2)c2ccccc12 [[1-β-piperidinoethyl-2-(4-chloro-phenyl)-3-indolyl] (4-pyridyl) ketone],change in vivo at 10 mg/kg,[1]; Rattus norvegicus,50%
CN(C)CCCn1c(-c2ccc(F)cc2)c(C(=O)c2cccnc2)c2ccccc21 [[1-γ-dimethylaminopropyl-2-(4-fluoro-phenyl)-3-indolyl] (3-pyridyl) ketone],change in vivo at 10 mg/kg,[1]; Rattus norvegicus,75%
"CC(C)c1c(C(=O)c2ccccn2)c2ccccc2n1C [methyl / isopropyl / 2-pyridyl, (1-methyl-2-isopropyl-3-indolyl) (2-pyridyl) ketone]",change in vivo at 10 mg/kg,[1]; [4],105%
"CC(C)c1c(C(=O)c2ccncc2)c2ccccc2n1C [methyl / isopropyl / 4-pyridyl, (1-methyl-2-isopropyl-3-indolyl) (4-pyridyl) ketone]",change in vivo at 10 mg/kg,[1]; [4],165%
"CCCn1c(C(C)C)c(C(=O)c2cccnc2)c2ccccc21 [n-propyl / isopropyl / 3-pyridyl, (1-n-propyl-2-isopropyl-3-indolyl) (3-pyridyl) ketone]",change in vivo at 10 mg/kg,[1]; Rattus norvegicus,25%
"CC(C)c1c(C(=O)c2cccnc2)c2ccccc2n1CCN1CCCCC1 [piperidinoethyl / isopropyl / 3-pyridyl, (1-β-piperidinoethyl-2-isopropyl 3-indolyl) (3-pyridyl) ketone]",change in vivo at 10 mg/kg,[1]; Rattus norvegicus,77%
